MIC90 data for 14 compounds are collected here from ChEMBL document CHEMBL1909569 (Bioorg Med Chem Lett, 2011).

Assay [1] has as its system Mycobacterium tuberculosis. Nature of the assay: Antimicrobial activity against replicating Mycobacterium tuberculosis after 8 days by micro plate alamar blue assay. It is filed as functional. Conditions: 192 h.
Assay [2] relates to Mycobacterium tuberculosis. Nature of the assay: Antimicrobial activity against non-replicating Mycobacterium tuberculosis after 11 days by luminescence based low oxygen recovery assay. It counts as functional. Conditions: 264 h.

Values after ≈ are worked out from the molar mass of the structure shown.

The MIC90 is an inhibitory concentration at the 90% level, which refers to growth in some studies and to a panel of isolates in others. Read a low MIC90 as greater potency. Regarding `CNc1c(C)c2c3c4c1C(=O)C(=CC4=O)NC(=O)/C(C)=C\C=C\[C@H](C)[C@H](O)[C@@H](C)[C@@H](O)[C@@H](C)[C@H](OC(C)=O)[C@H](C)[C@@H](OC)/C=C/O[C@@](C)(O2)C3=O`, the results for the MIC90 in assay [1] and in assay [2] were over 5.6 µM and 20.6 µM (≈ 14.6 µg/mL), respectively.

In the case of `CCNc1c(C)c2c3c4c1C(=O)C(=C(/C=N/N1CCN(C)CC1)C4=O)NC(=O)/C(C)=C\C=C\[C@H](C)[C@H](O)[C@@H](C)[C@@H](O)[C@@H](C)[C@H](OC(C)=O)[C@H](C)[C@@H](OC)/C=C/O[C@@](C)(O2)C3=O`, the MIC90 in assay [1] is over 4.7 µM; in assay [2], over 18.9 µM.

With `CO[C@H]1/C=C/O[C@@]2(C)Oc3c(C)c(NCCO)c4c(c3C2=O)C(=O)C(/C=N/N2CCN(C)CC2)=C(NC(=O)/C(C)=C\C=C\[C@H](C)[C@H](O)[C@@H](C)[C@@H](O)[C@@H](C)[C@H](OC(C)=O)[C@@H]1C)C4=O`, the MIC90 in assay [1] is over 4.6 µM; in assay [2], over 18.5 µM.

`C/C=C/Nc1c(C)c2c3c4c1C(=O)C(=CC4=O)NC(=O)/C(C)=C\C=C\[C@H](C)[C@H](O)[C@@H](C)[C@@H](O)[C@@H](C)[C@H](OC(C)=O)[C@H](C)[C@@H](OC)/C=C/O[C@@](C)(O2)C3=O`: the MIC90 is 5.2 µM (≈ 3.82 µg/mL) in assay [1] and 18.3 µM (≈ 13.4 µg/mL) in assay [2].

In the case of `CO[C@H]1/C=C/O[C@@]2(C)Oc3c(C)c(NCc4ccccc4)c4c(c3C2=O)C(=O)C(/C=N/N2CCN(C)CC2)=C(NC(=O)/C(C)=C\C=C\[C@H](C)[C@H](O)[C@@H](C)[C@@H](O)[C@@H](C)[C@H](OC(C)=O)[C@@H]1C)C4=O`, the MIC90 in assay [1] was over 4.4 µM; in assay [2], over 17.6 µM.

Consider `O=[N+]([O-])c1cn2c(n1)OC[C@@H](OCc1ccc(OC(F)(F)F)cc1)C2` [PRETOMANID], for which the MIC90 in assay [1] was found to be 0.66 µM (≈ 0.237 µg/mL); in assay [2], 2.3 µM (≈ 0.826 µg/mL).

As to `CO[C@H]1/C=C/O[C@@]2(C)Oc3c(C)c(NCCO)c4c(c3C2=O)C(=O)C=C(NC(=O)/C(C)=C\C=C\[C@H](C)[C@H](O)[C@@H](C)[C@@H](O)[C@@H](C)[C@H](OC(C)=O)[C@@H]1C)C4=O`, the MIC90 was 5.32 µM (≈ 3.93 µg/mL) in assay [1] and over 21.7 µM in assay [2].

Turning to `CO[C@H]1/C=C/O[C@@]2(C)Oc3c(C)c(NCc4ccccc4)c4c(c3C2=O)C(=O)C=C(NC(=O)/C(C)=C\C=C\[C@H](C)[C@H](O)[C@@H](C)[C@@H](O)[C@@H](C)[C@H](OC(C)=O)[C@@H]1C)C4=O`, the results for the MIC90 in assay [1] and in assay [2] were 2.4 µM (≈ 1.88 µg/mL) and over 20.4 µM, respectively.

Take `C/C=C/Nc1c(C)c2c3c4c1C(=O)C(=C(/C=N/N1CCN(C)CC1)C4=O)NC(=O)/C(C)=C\C=C\[C@H](C)[C@H](O)[C@@H](C)[C@@H](O)[C@@H](C)[C@H](OC(C)=O)[C@H](C)[C@@H](OC)/C=C/O[C@@](C)(O2)C3=O`: the MIC90 was over 4.7 µM in assay [1] and over 18.6 µM in assay [2].

Take `C/C=C/Nc1c(C)c2c3c4c(O)c(/C=N/N5CCN(C)CC5)c(c(O)c14)NC(=O)/C(C)=C\C=C\[C@H](C)[C@H](O)[C@@H](C)[C@@H](O)[C@@H](C)[C@H](OC(C)=O)[C@H](C)[C@@H](OC)/C=C/O[C@@](C)(O2)C3=O`: the MIC90 in assay [1] was over 4.6 µM; in assay [2], over 18.6 µM.

Regarding `CCNc1c(C)c2c3c4c1C(=O)C(=CC4=O)NC(=O)/C(C)=C\C=C\[C@H](C)[C@H](O)[C@@H](C)[C@@H](O)[C@@H](C)[C@H](OC(C)=O)[C@H](C)[C@@H](OC)/C=C/O[C@@](C)(O2)C3=O`, the values for the MIC90 in assay [1] and in assay [2] were 5.5 µM (≈ 3.98 µg/mL) and 21.4 µM (≈ 15.5 µg/mL), respectively.

For `CO[C@H]1/C=C/O[C@@]2(C)Oc3c(C)c(NC4CCCCCC4)c4c(c3C2=O)C(=O)C(/C=N/N2CCN(C)CC2)=C(NC(=O)/C(C)=C\C=C\[C@H](C)[C@H](O)[C@@H](C)[C@@H](O)[C@@H](C)[C@H](OC(C)=O)[C@@H]1C)C4=O`, the values for the MIC90 in assay [1] and in assay [2] were 3.9 µM (≈ 3.57 µg/mL) and 13.7 µM (≈ 12.6 µg/mL), respectively.

As to `NNC(=O)c1ccncc1` [ISONIAZID], the MIC90 in assay [1] was 0.39 µM (≈ 0.0535 µg/mL); in assay [2], over 128 µM.

On to `COc1c(N2C[C@@H]3CCCN[C@@H]3C2)c(F)cc2c(=O)c(C(=O)O)cn(C3CC3)c12` [MOXIFLOXACIN], for which the MIC90 was 0.64 µM (≈ 0.257 µg/mL) in assay [1] and 4.3 µM (≈ 1.73 µg/mL) in assay [2].
